Reference: ChEMBL document CHEMBL5665443, “Enzyme Inhibitor Single Concentration assay results for EUbOPEN Chemogenomics Library” (2024)

Experiments:
Conditions in all cases: Hit No
[1] = biological target: Uracil-DNA glycosylase (Homo sapiens) (UniProt P13051);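 also: UNG excision on a quenched double-stranded DNA oligo probe, with APE1 added for strand incision and turnover, read as fluorescence at 594 nm as strands separate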
Description: Inhibition of UNG by quantifying inhibition of UNG-mediated cleavage and dissociation of quenched duplex DNA oligonucleotides, measured as fluorescence at 594 nm. To generate a functional strand incision and increase turn-over this assay is coupled to APE1.

[2] = biological target: T1, Endonuclease III-like protein 1 (Homo sapiens) (UniProt P78549);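 also: enzyme assay tracking NTHL1 cutting and release of a quenched double-stranded DNA oligo substrate, read as fluorescence at 594 nm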
T1 sequence (whole entry): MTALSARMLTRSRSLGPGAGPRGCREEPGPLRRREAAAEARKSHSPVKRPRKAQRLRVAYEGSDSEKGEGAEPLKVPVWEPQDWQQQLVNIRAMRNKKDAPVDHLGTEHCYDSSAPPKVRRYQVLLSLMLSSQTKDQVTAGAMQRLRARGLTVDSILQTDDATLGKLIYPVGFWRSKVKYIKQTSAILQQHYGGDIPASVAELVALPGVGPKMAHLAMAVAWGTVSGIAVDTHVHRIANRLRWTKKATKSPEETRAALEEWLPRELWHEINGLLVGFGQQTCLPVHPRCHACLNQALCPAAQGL
Description: Inhibition of NTHL1 by quantifying inhibition of NTHL1-mediated cleavage and dissociation of quenched duplex DNA oligonucleotides, measured as fluorescence at 594 nm.

[3] = biological target: G/T mismatch-specific thymine DNA glycosylase (Homo sapiens) (UniProt Q13569);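 also: human TDG cleavage of quenched duplex DNA oligonucleotides coupled to APE1, strand release read as fluorescence at 594 nm, inhibition of TDG activity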
Description: Inhibition of TDG by quantifying inhibition of TDG-mediated cleavage and dissociation of quenched duplex DNA oligonucleotides, measured as fluorescence at 594 nm. To generate a functional strand incision and increase turn-over this assay is coupled to APE1.

[4] = biological target: T2, Endonuclease 8-like 2 (Homo sapiens) (UniProt Q969S2);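 also: fluorescence at 594 nm reports NEIL2 cutting and release of a quenched double-stranded DNA oligo substrate, reduced signal read as inhibition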
T2 sequence (whole entry): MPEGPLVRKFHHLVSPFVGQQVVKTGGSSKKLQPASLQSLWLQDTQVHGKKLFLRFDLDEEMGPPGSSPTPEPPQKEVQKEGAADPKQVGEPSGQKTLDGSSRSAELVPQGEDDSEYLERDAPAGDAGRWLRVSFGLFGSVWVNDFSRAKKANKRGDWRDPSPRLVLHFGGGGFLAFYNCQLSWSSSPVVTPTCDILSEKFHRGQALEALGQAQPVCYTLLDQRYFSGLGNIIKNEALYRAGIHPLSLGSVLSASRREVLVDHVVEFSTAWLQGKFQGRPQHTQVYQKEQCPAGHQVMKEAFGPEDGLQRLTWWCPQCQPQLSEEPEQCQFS
Description: Inhibition of NEIL2 by quantifying inhibition of NEIL2-mediated cleavage and dissociation of quenched duplex DNA oligonucleotides, measured as fluorescence at 594 nm.

[5] = biological target: T3, Single-strand selective monofunctional uracil DNA glycosylase (Homo sapiens) (UniProt Q53HV7);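 also: enzymatic SMUG1 assay coupled with APE1, reading fluorescence at 594 nm released when a quenched double-stranded DNA oligonucleotide substrate is cleaved and separated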
T3 sequence (whole entry): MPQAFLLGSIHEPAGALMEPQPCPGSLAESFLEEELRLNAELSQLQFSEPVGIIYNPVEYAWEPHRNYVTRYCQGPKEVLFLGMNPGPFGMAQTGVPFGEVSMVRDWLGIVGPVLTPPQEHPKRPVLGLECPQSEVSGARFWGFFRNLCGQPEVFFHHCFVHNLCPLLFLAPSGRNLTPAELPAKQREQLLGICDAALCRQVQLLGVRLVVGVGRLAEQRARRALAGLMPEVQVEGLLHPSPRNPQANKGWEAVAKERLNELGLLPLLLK
Description: Inhibition of SMUG1 by quantifying inhibition of SMUG1-mediated cleavage and dissociation of quenched duplex DNA oligonucleotides, measured as fluorescence at 594 nm. To generate a functional strand incision and increase turn-over this assay is coupled to APE1.

[6] = biological target: Methyl-CpG-binding domain protein 4 (Homo sapiens) (UniProt O95243);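 also: MBD4 activity read as fluorescence at 594 nm from cleavage and release of a quenched duplex DNA oligonucleotide, with APE1 coupled to incise the strand and raise turnover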
Description: Inhibition of MBD4 by quantifying inhibition of MBD4-mediated cleavage and dissociation of quenched duplex DNA oligonucleotides, measured as fluorescence at 594 nm. To generate a functional strand incision and increase turn-over this assay is coupled to APE1.

[7] = biological target: N-glycosylase/DNA lyase (Homo sapiens) (UniProt O15527);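 also: OGG1 cleavage of a quenched duplex DNA oligonucleotide, coupled to APE1 for strand incision, read as fluorescence at 594 nm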
Description: Inhibition of OGG1 by quantifying inhibition of OGG1-mediated cleavage and dissociation of quenched duplex DNA oligonucleotides, measured as fluorescence at 594 nm. To generate a functional strand incision and increase turn-over this assay is coupled to APE1.

[8] = biological target: Endonuclease 8-like 1 (Homo sapiens) (UniProt Q96FI4);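 also: fluorescence at 594 nm from quenched duplex DNA oligonucleotides released by NEIL1 cleavage and strand separation, reported as reduction of this enzyme activity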
Endonuclease 8-like 1 (Homo sapiens), sequence (Q96FI4 whole entry): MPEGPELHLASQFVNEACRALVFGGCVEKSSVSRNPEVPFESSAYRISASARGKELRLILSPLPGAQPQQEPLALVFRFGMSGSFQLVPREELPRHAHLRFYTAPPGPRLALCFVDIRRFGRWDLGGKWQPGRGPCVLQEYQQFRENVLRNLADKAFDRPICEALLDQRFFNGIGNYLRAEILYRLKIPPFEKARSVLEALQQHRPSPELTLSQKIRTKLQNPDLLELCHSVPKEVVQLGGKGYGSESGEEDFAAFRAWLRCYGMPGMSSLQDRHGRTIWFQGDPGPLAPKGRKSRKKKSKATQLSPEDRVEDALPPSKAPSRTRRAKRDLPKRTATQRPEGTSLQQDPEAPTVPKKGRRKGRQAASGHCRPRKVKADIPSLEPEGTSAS
Description: Inhibition of NEIL1 by quantifying inhibition of NEIL1-mediated cleavage and dissociation of quenched duplex DNA oligonucleotides, measured as fluorescence at 594 nm.

G/T mismatch-specific thymine DNA glycosylase (Homo sapiens), sequence (Q13569 whole entry): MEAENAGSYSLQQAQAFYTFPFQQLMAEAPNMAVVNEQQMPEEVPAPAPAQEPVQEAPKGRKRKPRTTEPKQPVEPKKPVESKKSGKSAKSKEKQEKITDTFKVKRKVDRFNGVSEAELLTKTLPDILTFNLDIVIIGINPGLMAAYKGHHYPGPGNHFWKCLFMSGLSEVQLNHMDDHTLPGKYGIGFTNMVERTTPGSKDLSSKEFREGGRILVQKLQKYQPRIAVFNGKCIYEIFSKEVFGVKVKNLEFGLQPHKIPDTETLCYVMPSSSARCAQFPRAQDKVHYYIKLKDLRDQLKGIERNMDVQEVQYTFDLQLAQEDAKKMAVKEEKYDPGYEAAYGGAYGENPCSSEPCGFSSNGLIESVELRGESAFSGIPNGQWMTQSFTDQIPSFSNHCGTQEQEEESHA
Uracil-DNA glycosylase (Homo sapiens), sequence (P13051 whole entry): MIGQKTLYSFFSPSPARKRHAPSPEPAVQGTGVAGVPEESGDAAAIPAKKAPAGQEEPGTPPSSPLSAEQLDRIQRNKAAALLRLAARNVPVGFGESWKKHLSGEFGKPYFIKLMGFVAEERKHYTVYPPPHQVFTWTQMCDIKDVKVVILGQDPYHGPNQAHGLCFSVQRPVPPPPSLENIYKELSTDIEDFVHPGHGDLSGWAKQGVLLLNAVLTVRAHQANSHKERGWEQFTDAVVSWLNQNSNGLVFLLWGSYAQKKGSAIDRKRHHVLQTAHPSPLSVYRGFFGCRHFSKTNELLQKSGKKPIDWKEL
Methyl-CpG-binding domain protein 4 (Homo sapiens), sequence (O95243 whole entry, the tested form may be a part): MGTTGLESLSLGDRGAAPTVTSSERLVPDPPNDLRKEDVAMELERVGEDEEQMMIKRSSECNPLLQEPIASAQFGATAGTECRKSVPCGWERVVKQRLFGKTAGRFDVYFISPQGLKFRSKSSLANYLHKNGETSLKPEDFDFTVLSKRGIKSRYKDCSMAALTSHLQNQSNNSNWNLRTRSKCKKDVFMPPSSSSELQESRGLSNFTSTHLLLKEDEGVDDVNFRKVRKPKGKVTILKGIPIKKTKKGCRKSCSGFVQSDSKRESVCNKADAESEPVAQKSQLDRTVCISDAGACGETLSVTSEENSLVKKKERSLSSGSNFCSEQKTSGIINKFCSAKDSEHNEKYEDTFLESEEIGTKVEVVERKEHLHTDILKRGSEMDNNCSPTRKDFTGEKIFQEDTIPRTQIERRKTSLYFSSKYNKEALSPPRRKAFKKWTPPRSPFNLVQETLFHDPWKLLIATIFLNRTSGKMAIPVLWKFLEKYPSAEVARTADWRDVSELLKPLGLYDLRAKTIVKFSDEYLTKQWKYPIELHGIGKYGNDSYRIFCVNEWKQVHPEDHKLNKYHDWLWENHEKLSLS
N-glycosylase/DNA lyase (Homo sapiens), sequence (O15527 whole entry): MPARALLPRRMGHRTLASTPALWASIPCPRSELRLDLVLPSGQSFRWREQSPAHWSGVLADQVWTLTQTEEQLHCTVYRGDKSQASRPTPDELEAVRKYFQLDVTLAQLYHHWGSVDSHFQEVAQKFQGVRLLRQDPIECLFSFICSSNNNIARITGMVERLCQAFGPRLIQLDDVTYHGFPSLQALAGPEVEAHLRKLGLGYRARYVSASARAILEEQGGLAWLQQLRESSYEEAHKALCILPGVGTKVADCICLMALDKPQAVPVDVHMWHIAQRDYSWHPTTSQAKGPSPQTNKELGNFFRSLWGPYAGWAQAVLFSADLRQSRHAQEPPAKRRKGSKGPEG

SMILES	inhibition ([1]; Compound Concentration 1.0 uM) [%]	inhibition ([2]; Compound Concentration 1.0 uM) [%]	inhibition ([3]; Compound Concentration 1.0 uM) [%]	inhibition ([4]; Compound Concentration 1.0 uM) [%]	inhibition ([5]; Compound Concentration 1.0 uM) [%]	inhibition ([6]; Compound Concentration 1.0 uM) [%]	inhibition ([7]; Compound Concentration 1.0 uM) [%]	inhibition ([8]; Compound Concentration 1.0 uM) [%]	inhibition ([1]; Compound Concentration 10.0 uM) [%]	inhibition ([2]; Compound Concentration 10.0 uM) [%]	inhibition ([3]; Compound Concentration 10.0 uM) [%]	inhibition ([4]; Compound Concentration 10.0 uM) [%]	inhibition ([5]; Compound Concentration 10.0 uM) [%]	inhibition ([6]; Compound Concentration 10.0 uM) [%]	inhibition ([7]; Compound Concentration 10.0 uM) [%]	inhibition ([8]; Compound Concentration 10.0 uM) [%]
CC[C@@H]1[C@H](F)C(=O)N[C@@H]1COc1nccc2cc(C(N)=O)c(OC)cc12	-6.54	2.88	35.2	-7.57	2.52	1.45	-7.95	-3.17								
Cc1cc(OCC(=O)O)cc(C)c1Cc1ccc(O)c(C(C)C)c1									2.02	7.26	63	4.61	9.54	57.9	20.6	-0.29
NS(=O)(=O)c1cc(NC(=O)C2(c3ccccc3Cl)CC2)ccc1Oc1cccc(Cl)c1									-3.29	-7.86	35.3	3.34	17.9	26.3	21.8	-2.56
Cc1cn([C@H](C)CC#N)c(=O)c2cc(Cn3nc(C(F)F)cc3Cl)nn12									1.83	-5.89	31.2	-2.27	9.99	55.5	-5.53	-8.77
FC(F)(F)c1c(N2CCC(c3ccccc3)CC2)ccn2c(CC3CC3)nnc12									-5.14	7.79	16.4	-1.48	1.61	5.84	0.771	-4.5
COc1ccc(-c2ccc3cc(C(=O)O)ccc3c2)cc1C12CC3CC(CC(C3)C1)C2									-6.23	6.6	39.5	-6.1	7.63	48.6	34.6	-5.14
O=c1nc(-c2ccccn2)sc2ccccc12									-3.04	2	99.2	17.4	5.03	53.8	10.7	
CN([C@@H]1CCc2c(CC(=O)O)c3ccccc3n2C1)S(=O)(=O)c1ccc(F)cc1									2.73	10.6	9.01	-4.06	15.5	28.2	5.88	
O=C(NCCS(=O)(=O)c1ccc(C(F)(F)F)cn1)c1ccc(Cl)cc1									0.131	-0.63	97.2	1.3	13.1	55.1	-0.41	
COc1ccc2c(c1)O[C@@H](c1ccc(OC)c(OC)c1)C[C@H]2NC(=O)C1(c2ccc3c(c2)OC(F)(F)O3)CC1									-6.88	-7.86	25.6	-1.51	-5.34	35.4	-6.31	
O=C(Nc1cccnn1)N1CCC(=Cc2cccc(Oc3ccc(C(F)(F)F)cn3)c2)CC1									0.719	5.94	59.6	-7.12	17	65.2	-7.84	
CCCCN(CCCC)C(=O)CN1C[C@H](c2cc(OC)c3c(c2)OCO3)[C@@H](C(=O)O)[C@@H]1CC(C)(C)CCC	-0.907	11.2	54.3	-9.42	14.3	62.3	14.6									
C[C@H](c1ccc(F)cc1)N(Cc1cccc(C(=O)O)c1)C(=O)c1cnc2ccccc2c1									1.51	5.94	99.9	0.531	15.5	54.2	-1.34	
COc1cnccc1Nc1nc(-c2nn(Cc3c(F)cc(OCCO)cc3F)c3ccccc23)ncc1OC	1.12	4.97	29.7	-7.84	7.99	47.4			-1.2	-7.86	11.1		6.21	52.5	14.4	
O=C(NCCCn1ccnc1)c1cc2nc(-c3ccccc3)cc(-c3ccccc3)n2n1									4.11	-4.57	44.7	-9.67	12	28.3	-1.93	
CN(C)C(=O)/C(C#N)=C/c1ccc(-c2nc3cnc4c(ccn4C)c3n2C2CCCCC2)o1	-0.285	0.785	49.4	-3.8	2.69	95	-5.75									
CN(C)C(=O)Cn1cc(-c2nc(C3(c4ccc(-c5cnc(N)nc5)cc4)CC3)no2)cn1									1.06	-5.89	43.7	0.0213	11.1	22.8	28.7	
CNC(=O)COc1cc2cc(Nc3nc(N4CCC(C(=O)N(C)C)CC4)ncc3Cl)cc(OC)c2n(C)c1=O									0.116	-0.63	86.8	-6.1	3.52	50.6	4.56	
CCOC(=O)c1ccc(CN(Cc2ccc(-c3cccc(S(C)(=O)=O)c3)cc2)S(=O)(=O)c2c(C)cc(C)cc2C)o1									0.52	-3.26	35	-7.63	14.1	46	0.574	
C[C@H](c1ccnc(Nc2nc3ccc(-c4cc(N(C)C)ncn4)cc3[nH]2)c1)N1CCN(C(=O)CC(F)(F)F)CC1									1.7	-3.92	87.4	-5.59	11.6	37.6	-2.48	
C[C@H](c1ccc(F)cc1)N(Cc1ccc(Cl)c(C(=O)O)c1)C(=O)c1cnc2ccccc2c1									1.41	-7.86	31.5	-8.14	16.2	52.3	8.39	
